According to patent US20110118220A1, “Composition of bifonazole and its use” (priority 2009, published 2011):

Assays:
[1] = system: candida such as candida Albicans; assay: In vitro antifungal activity (MIC), candida; assay type: cell-based
Description: (§1) To understand the in vivo and in vitro antibacterial effects, and to determine the in vivo and in vitro antibacterial activity through measuring the compound Bifonazole cream (Bifonazole/Triamcinolone acetonide acetate) on common pathogenic fungi of the minimum inhibitory concentration (MIC).

[2] = Long-term toxicity study by skin exposure; assay type: in vivo, rats; details: rat
Description: Observe the abnormal reaction and degree of reversibility of the reaction caused by skin penetration through long-term exposure the animal's skin to subject drug.

[3] = system: filamentous fungi represented by Trichophyton rubrum; assay: In vitro antifungal activity (MIC), filamentous fungi; assay type: cell-based
Description: as §1

543 common fungi = assay: In vitro pharmacodynamics of nine antifungal agents against 543 common fungi; assay type: cell-based
Description: as §1

[4] = Allergy study (repeated skin contact); assay type: in vivo
Description: Observe the immune system response on skin after repeating skin contact animal skin with testing object.

| Structure (SMILES) | antibacterial activity on candida [1] | minimum toxic dosage on main target organ (liver) [2] | antibacterial activity on filamentous fungi [3] | antimicrobial activity against common fungal skin infections compared with econazole, ketoconazole, clotrimazole and miconazole (543 common fungi) | average response ([4]; 24 hours) | average response ([4]; 48 hours) | average response ([4]; 72 hours) | average response ([4]; by instance) | allergenic rate ([4]; in vivo) | erythema and edema ([4]; in vivo) |
| --- | --- | --- | --- | --- | --- | --- | --- | --- | --- | --- |
| c1ccc(-c2ccc(C(c3ccccc3)n3ccnc3)cc2)cc1 (stereo not shown) [Bifonazole] | a certain antibacterial activity | 2 g/kg | strong antibacterial activity | slightly stronger | – | – | – | – | – | – |
| O=[N+]([O-])c1ccc(Cl)c([N+](=O)[O-])c1 [2,4-dinitro-chlorobenzene] | – | – | – | – | 2.4 | 2.7 | 2.9 | 2.4 | 100% | 10 animals all have erythema and edema |
